US20240174659A1, “COMPOUNDS AND METHODS FOR YAP/TEAD MODULATION AND INDICATIONS THEREFOR” (Opna Bio SA, priority 2021, published 2024)
Counter-ions that a name gives are not always drawn.

Test system: TEAD-dependent transcription
Assay: Inhibitor activity against TEAD-dependent transcription in a cell-based reporter assay (MSTO-211H+12XGTIIC luciferase)
Settings: Homo sapiens; MSTO-211H+12XGTIIC cells, 24 hours incubation, luciferase luminescence normalized to cell viability fluorescence, geometric mean; read-out: MSTO-211H GMean IC50 (uM) Cell Assay Reporter Cell Variant: TEAD
Description: Determine Inhibitor Activity Against TEAD-Dependent Transcription in a Cell-Based Reporter Assay
The human mesothelioma cell line MSTO-211H was stably transfected with a pGL4.21 plasmid containing a synthetic promoter with 12 copies of the GTIIC TEAD response element that drives the expression of a luciferase reporter gene^1 using Lipofectamine transfection reagent (Thermo Fisher). Transfected cells were selected using puromycin and single cell clones expressing this construct (referred to as MSTO-211H+12XGTIIC) were generated by limiting dilution. MSTO-211H cells was characterized by genetic alterations in key components of the Hippo pathway^2, resulting in up-regulation of YAP/TEAD-mediated transcription. […] To evaluate TEAD inhibitors, the MSTO-211H+12XGTIIC cell line was seeded in a 96-well plate in 50 μL of culture media at 1×10^4 cells per well and incubated at 37° C. overnight. Serial dilutions of compounds (in total volume of 50 μL of culture media) were added to the cells and incubated at 37° C. for 24 hours. Each plate included cells treated with DMSO as high controls and cells treated with 20 μM of the reference compound K-975 (a known TEAD inhibitor)^3 as low controls. Cell viability was assayed by the addition of 25 μL of CellTiter-Fluor reagent (Promega) followed by a 30-minute incubation at 37° C. and quantification of the fluorescence signal (Ex400/Em505). Subsequently, luciferase expression was assayed by the addition of 25 μL of ONE-Glo reagent (Promega) followed by a 10-minute incubation at room temperature and quantification of the luminescence signal. The luminescence signal was normalized to the fluorescence signal to correct for any loss in cell viability over the 24-hour compound incubation period. The percentage of inhibition of normalized luminescence signal, indicative of compound-mediated inhibition of TEAD-dependent transcription, at individual compound concentrations relative to high and low controls was calculated. The data were analyzed by using nonlinear regression to generate IC50 values for individual compounds.

Row | SMILES | IC50 [µM]
1 | C=CC(=O)N1CCc2ccc(Oc3ccccn3)cc2C1 [P-0059, 1-(7-(pyridin-2-yloxy)-3,4-dihydroisoquinolin-2(1H)-yl)prop-2-en-1-one] | > 20
2 | C=CC(=O)N1CCc2ccc(Oc3ccnc(C(F)(F)F)c3)cc2C1 [P-0060, 1-(7-((2-(trifluoromethyl)pyridin-4-yl)oxy)-3,4-dihydroisoquinolin-2(1H)-yl)prop-2-en-1-one] | 0.001 to 0.5
3 | C=CC(=O)N1CCc2ccc(OC3CCCCC3)cc2C1 [P-0061, 1-(7-(cyclohexyloxy)-3,4-dihydroisoquinolin-2(1H)-yl)prop-2-en-1-one] | 0.001 to 0.5
4 | C=CC(=O)N1CCc2ccc(OC3CCC(F)(F)CC3)cc2C1 [P-0062, 1-(7-((4,4-difluorocyclohexyl)oxy)-3,4-dihydroisoquinolin-2(1H)-yl)prop-2-en-1-one] | 0.001 to 0.5
5 | C=CC(=O)N1CCc2ccc(Oc3ccccc3F)cc2C1 [P-0063, 1-(7-(2-fluorophenoxy)-3,4-dihydroisoquinolin-2(1H)-yl)prop-2-en-1-one] | 0.001 to 0.5
6 | C=CC(=O)N1CCc2ccc(OC3CCC4(CCCC4)CC3)cc2C1 [P-0064, 1-(7-(spiro[4.5]decan-8-yloxy)-3,4-dihydroisoquinolin-2(1H)-yl)prop-2-en-1-one] | 0.5 to 20
7 | C=CC(=O)N1CCc2ccc(N[C@H]3CC[C@@H](C(F)(F)F)CC3)cc2C1 [P-0065, 1-(7-(((1s,4s)-4-(trifluoromethyl)cyclohexyl)ami-no)-3,4-dihydroisoquinolin-2(1H)-yl)prop-2-en-1-one formate] | 0.001 to 0.5
8 | C=CC(=O)N1CCc2ccc(NC3CCCC3)cc2C1 [P-0066, 1-(7-(cyclopentylamino)-3,4-dihydroisoquinolin-2(1H)-yl)prop-2-en-1-one] | 0.001 to 0.5
9 | C=CC(=O)N1CCc2ccc(Cc3ccc(F)c(C(F)(F)F)c3)cc2C1 [P-0067, 1-(7-(4-fluoro-3-(trifluoromethyl)benzyl)-3,4-dihydroisoquinolin-2(1H)-yl)prop-2-en-1-one] | 0.001 to 0.5
10 | C=CC(=O)N1CCc2ccc(Cc3ccc(C(F)(F)F)c(F)c3)cc2C1 [P-0068, 1-(7-(3-fluoro-4-(trifluoromethyl)benzyl)-3,4-dihydroisoquinolin-2(1H)-yl)prop-2-en-1-one] | 0.001 to 0.5
11 | C=CC(=O)N1CCc2ccc(Oc3cccc(C(F)(F)F)n3)cc2C1 [P-0069, 1-(7-((6-(trifluoromethyl)pyridin-2-yl)oxy)-3,4-dihydroisoquinolin-2(1H)-yl)prop-2-en-1-one] | 0.5 to 20
12 | C=CC(=O)N1CCc2ccc(OC3CCCCCC3)cc2C1 [P-0070, 1-(7-(cycloheptyloxy)-3,4-dihydroisoquinolin-2(1H)-yl)prop-2-en-1-one] | 0.001 to 0.5
13 | C=CC(=O)N1CCc2ccc(OC3CCC(C(F)(F)F)CC3)cc2C1 (stereo not drawn) [P-0071, 1-(7-((4-(trifluoromethyl)cyclohexyl)oxy)-3,4-dihydroisoquinolin-2(1H)-yl)prop-2-en-1-one] | 0.001 to 0.5
14 | C=CC(=O)N1CCc2ccc(Cc3ccc(C(F)(F)F)cc3)cc2C1 [P-0072, 1-(7-(4-(trifluoromethyl)benzyl)-3,4-dihydroisoquinolin-2(1H)-yl)prop-2-en-1-one] | 0.001 to 0.5
15 | C=CC(=O)N1CCc2ccc(Oc3ccc(Cl)c(F)c3)cc2C1 [P-0073, 1-(7-(4-chloro-3-fluorophenoxy)-3,4-dihydroisoquinolin-2(1H)-yl)prop-2-en-1-one] | 0.001 to 0.5
16 | C=CC(=O)N1CCc2ccc(OC3CC4(CCC4)C3)cc2C1 [P-0074, 1-(7-(spiro[3.3]heptan-2-yloxy)-3,4-dihydroisoquinolin-2(1H)-yl)prop-2-en-1-one] | 0.001 to 0.5
17 | C=CC(=O)N1CCc2ccc(O[C@H]3C[C@@H]4[C@H](C3)C4(F)F)cc2C1 [P-0075, 1-(7-(((1R,3r,5S)-6,6-difluorobicyclo[3.1.0]hexan-3-yl)oxy)-3,4-dihydroisoquinolin-2(1H)-yl)prop-2-en-1-one] | 0.001 to 0.5
18 | C=CC(=O)N1CCc2ccc(OC3CC4CCC3C4)cc2C1 (stereo not drawn) [P-0076, 1-(7-(bicyclo[2.2.1]heptan-2-yloxy)-3,4-dihydroisoquinolin-2(1H)-yl)prop-2-en-1-one] | 0.001 to 0.5
